Experimental findings from patent US10723695B2, “Microbiocidal phenylamidine derivatives” (SYNGENTA PARTICIPATIONS AG, priority 2015, dated 2020) are described below.

Some results are limits rather than exact numbers.

For data set [1], the system named is Blumeria graminis f. sp. tritici (Erysiphe graminis f. sp. tritici). Put plainly: Blumeria graminis f. sp. tritici / wheat / leaf disc preventative (powdery mildew on wheat). Format: in vivo. The settings on record: foliar, wheat leaf segments cv. Kanzler, compared to untreated control leaf disks, read-out: disease control. The text has this: Blumeria graminis f. sp. tritici (Erysiphe graminis f. sp. tritici)/Wheat/Leaf Disc Preventative (Powdery Mildew on Wheat) Wheat leaf segments cv. Kanzler were placed on agar in a multiwell plate (24-well format) and sprayed with the formulated test compound diluted in water. The leaf disks were inoculated by shaking powdery mildew infected plants above the test plates 1 day after application.

Data set [2] concerns Puccinia recondita f. sp. tritici. As to the kind of experiment: Puccinia recondita f. sp. tritici / wheat / leaf disc preventative (brown rust). Format: in vivo. The settings on record: foliar, wheat leaf segments cv. Kanzler, compared to untreated control leaf disks, read-out: disease control. As to the method: Puccinia recondita f. sp. tritici/Wheat/Leaf Disc Preventative (Brown Rust) Wheat leaf segments cv. Kanzler were placed on agar in multiwell plates (24-well format) and sprayed with the formulated test compound diluted in water. The leaf disks were inoculated with a spore suspension of the fungus 1 day after application. The inoculated leaf segments were incubated at 19° C. and 75% rh under a light regime of 12 h light/12 h darkness in a climate cabinet and the activity of a compound was assessed as percent disease control compared to untreated when an appropriate level of disease damage appears in untreated check leaf segments (7-9 days after application).

For data set [3] the test system is unchanged. Put plainly: Puccinia recondita f. sp. tritici / wheat / leaf disc curative (brown rust). Type of data set: in vivo. The settings on record: foliar, 24 h, wheat leaf segments cv. Kanzler, curative (applied 1 day after inoculation), compared to untreated control leaf disks, read-out: disease control. As to the method:
Puccinia recondita f. sp. tritici/Wheat/Leaf Disc Curative (Brown Rust) Wheat leaf segments cv. Kanzler are placed on agar in multiwell plates (24-well format). The leaf segments are inoculated with a spore suspension of the fungus. Plates were stored in darkness at 19° C. and 75% rh. The formulated test compound diluted in water was applied 1 day after inoculation.

Data set [4] deals with Phakopsora pachyrhizi. Put plainly: Phakopsora pachyrhizi / soybean / leaf disk preventative (soybean rust). Type of data set: in vivo. The settings on record: foliar, soybean leaf disks, compared to untreated control leaf disks, read-out: disease control. As to the method:
Phakopsora pachyrhizi/Soybean/Leaf Disk Preventative (Soybean Rust) Four-week old soybean plants are sprayed in a spray chamber with the formulated test compound diluted in water. Leaf disks are cut from treated plants and placed on agar into 24-well plates one day after application. Leaf disks are inoculated by spraying them with a spore suspension on their lower leaf surface. After an incubation period in a climate cabinet of 24-36 hours in darkness at 20° C. and 75% rh, the leaf disks are then kept at 20° C. with 12 h light/day and 75% rh. The percentage leaf disk area covered by disease is assessed when an appropriate level of disease appears on untreated check plants (12-14 days after application).

`CCN(C)/C=N/c1cc(OC)c(C(O)(c2ccc(OC)nc2)C(F)(F)F)cc1C` (centres unmarked) [Compound E1.107]: the melting point fell in the range of 100 to 102 °C. For the same compound, the pest or weed control at 200 ppm in data set [1] was at least 80%. Further, the pest or weed control at 200 ppm in data set [2] was at least 80%. Besides, in data set [3], the pest or weed control at 200 ppm was at least 80%.
`CCN(C)/C=N/c1cc(OC)c(C(O)(c2ccccc2)C(C)C)cc1C` (centres unmarked) [Compound E1.124] came in with a melting point of 82 to 84 °C. Moreover, in data set [4], the pest or weed control at 200 ppm is at least 80%. Besides, in data set [2], the pest or weed control at 200 ppm is at least 80%. Moreover, in data set [3], the pest or weed control at 200 ppm was at least 80%.
As for `CCN(C)/C=N/c1cc(OC)c(C(O)(c2ccc(Br)cc2)C(F)(F)F)cc1C` (centres unmarked) [Compound E1.025], the melting point fell in the range of 127 to 129 °C. For the same compound, the pest or weed control at 200 ppm in data set [1] is at least 80%. For the same compound, the pest or weed control at 200 ppm in data set [2] is at least 80%. For the same compound, the pest or weed control at 200 ppm in data set [3] is at least 80%.
Compound `CCN(C)/C=N/c1cc(OC)c(C(O)(Cc2ccc(Cl)cc2)C(F)(F)F)cc1C` (centres unmarked) [Compound E1.090] displayed a melting point of 63 to 65 °C. Also, the pest or weed control at 200 ppm in data set [4] is at least 80%. Moreover, the pest or weed control at 200 ppm in data set [1] was at least 80%. Besides, the pest or weed control at 200 ppm in data set [3] is at least 80%.
`CCN(C)/C=N/c1cc(OC)c(C(O)(c2ccccc2S(C)(=O)=O)C(F)(F)F)cc1C` (centres unmarked) [Compound E1.036] registered a melting point of 177 to 180 °C. Also, the pest or weed control at 200 ppm in data set [2] is at least 80%. Also, in data set [3], the pest or weed control at 200 ppm was at least 80%.
The compound `CCN(C)/C=N/c1cc(OC)c(C(O)(c2ccc(Cl)cc2)C(F)(F)F)cc1C` (centres unmarked) [Compound E1.021] gave a melting point of 134 to 135 °C. Besides, the pest or weed control at 200 ppm in data set [1] is at least 80%. Further, the pest or weed control at 200 ppm in data set [2] was at least 80%. In addition, the pest or weed control at 200 ppm in data set [3] was at least 80%.
`CCN(C)/C=N/c1cc(OC)c(C(O)(C#CC2CCCCC2)C(F)(F)F)cc1C` (centres unmarked) [Compound E1.085] came in with a melting point of 62 to 64 °C. The pest or weed control at 200 ppm in data set [3] was at least 80%.
Compound `COc1cc(/N=C/N(C)C(C)C)c(C)cc1C(O)(c1ccccc1C)C(F)(F)F` (centres unmarked) [Compound E1.148] came in with a melting point of 138 to 140 °C.
In the case of `CCN(C)/C=N/c1cc(OC)c(C(O)(c2cccc(F)c2C)C(F)(F)F)cc1C` (centres unmarked) [Compound E1.132], the melting point is 107 to 109 °C.
On to `COc1cc(/N=C/N(C)C(C)C)c(C)cc1C(O)(c1ccc(F)c(F)c1)C(F)(F)F` (centres unmarked) [Compound E1.127], for which the melting point was 116 to 118 °C.
As for `CCN(C)/C=N/c1cc(OC)c(C(O)(c2ccc(OC(F)F)cc2)C(F)(F)F)cc1C` (centres unmarked) [Compound E1.045], the melting point was in the range of 85 to 87 °C. Moreover, the pest or weed control at 200 ppm in data set [4] is at least 80%. Further, in data set [1], the pest or weed control at 200 ppm is at least 80%. Also, the pest or weed control at 200 ppm in data set [3] was at least 80%.
`COc1cc(/N=C/N(C)C(C)C)c(C)cc1C(O)(c1cccc(F)c1)C(F)(F)F` (centres unmarked) [Compound E1.152] registered a melting point of 92 to 94 °C.
As to `CCN(C)/C=N/c1cc(OC)c(C(O)(C#Cc2ccccc2)C(F)(F)F)cc1C` (centres unmarked) [Compound E1.073], the melting point is 88 to 90 °C. Further, the pest or weed control at 200 ppm in data set [2] is at least 80%.
`CCOc1cc(/N=C/N(C)CC)c(C)cc1C(O)(c1ccccc1)C(F)(F)F` (centres unmarked) [Compound E1.002] registered a melting point of 148 to 151 °C. Besides, the pest or weed control at 200 ppm in data set [4] is at least 80%. In addition, the pest or weed control at 200 ppm in data set [2] was at least 80%. Besides, the pest or weed control at 200 ppm in data set [3] was at least 80%.
In turn, `COc1cc(/N=C/N(C)C(C)C)c(C)cc1C(O)(c1ccccc1Cl)C(F)(F)F` (centres unmarked) [Compound E1.151] registered a melting point of 67 to 69 °C.
Regarding `CCN(C)/C=N/c1cc(SC)c(C(O)(c2ccccc2)C(F)(F)F)cc1C` (centres unmarked) [Compound E1.113], the melting point fell in the range of 160 to 165 °C. The pest or weed control at 200 ppm in data set [1] is at least 80%. In data set [3], the pest or weed control at 200 ppm is at least 80%.
Regarding `COc1cc(/N=C/N2CCCC2)c(C)cc1C(O)(c1ccccc1)C(F)(F)F` (centres unmarked) [Compound E1.135], the melting point lay within 157 to 159 °C.
The compound `CCN(/C=N/c1cc(OC)c(C(O)(c2ccccc2)C(F)(F)F)cc1C)CC` (centres unmarked) [Compound E1.139] yielded a melting point of 102 to 104 °C.
In turn, `COc1cc(/N=C/N(C)C(C)C)c(C)cc1C(O)(c1c(F)cccc1F)C(F)(F)F` (centres unmarked) [Compound E1.148] came in with a melting point of 119 to 121 °C.
With `CCN(C)/C=N/c1cc(OC)c(C(O)(c2ccccc2SC)C(F)(F)F)cc1C` (centres unmarked) [Compound E1.032], the melting point is 104 to 106 °C. In addition, the pest or weed control at 200 ppm in data set [1] was at least 80%. Besides, in data set [2], the pest or weed control at 200 ppm was at least 80%. The pest or weed control at 200 ppm in data set [3] was at least 80%.
`CCN(C)/C=N/c1cc(OC)c(C(O)(c2ccc(SC(F)(F)F)cc2)C(F)(F)F)cc1C` (centres unmarked) [Compound E1.037] displayed a melting point of 64 to 66 °C. Also, the pest or weed control at 200 ppm in data set [4] was at least 80%. In data set [1], the pest or weed control at 200 ppm is at least 80%. Further, in data set [3], the pest or weed control at 200 ppm is at least 80%.
Turning to `CCN(C)/C=N/c1cc(OC)c(C(O)(c2cc(F)ccc2C)C(F)(F)F)cc1C` (centres unmarked) [Compound E1.145], the melting point was 95 to 97 °C.
With `CCN(C)/C=N/c1cc(OC)c(C(O)(c2ccc(O)cc2)C(F)(F)F)cc1C` (centres unmarked) [Compound E1.043], the melting point was in the range of 240 to 242 °C. Moreover, the pest or weed control at 200 ppm in data set [1] is at least 80%. Besides, the pest or weed control at 200 ppm in data set [3] was at least 80%.
`COc1cc(/N=C/N(C)C(C)C)c(C)cc1C(O)(c1ccccc1)C(F)(F)F` (centres unmarked) [Compound E1.009] gave a melting point of 110 to 111 °C. Further, the pest or weed control at 200 ppm in data set [2] is at least 80%. Besides, in data set [3], the pest or weed control at 200 ppm was at least 80%.
As to `CCN(C)/C=N/c1cc(OC)c(C(O)(c2ccccc2)C(F)(F)F)cc1F` (centres unmarked) [Compound E1.153], the melting point is 144 to 146 °C.
Compound `CCN(C)/C=N/c1cc(OC)c(C(O)(Cc2cc(C)nc(OC)n2)C(F)(F)F)cc1C` (centres unmarked) [Compound E1.094] returned a melting point of 117 to 119 °C. Further, the pest or weed control at 200 ppm in data set [1] was at least 80%. Also, in data set [2], the pest or weed control at 200 ppm is at least 80%. Besides, the pest or weed control at 200 ppm in data set [3] is at least 80%.
Compound `CCN(C)/C=N/c1cc(OC)c(C(O)(c2ccc(C#N)cc2)C(F)(F)F)cc1C` (centres unmarked) [Compound E1.040] had a melting point of 167 to 169 °C. The pest or weed control at 200 ppm in data set [1] is at least 80%. The pest or weed control at 200 ppm in data set [3] is at least 80%.
Turning to `CCN(C)/C=N/c1cc(OC)c(C(O)(c2ccc(SC)cc2)C(F)(F)F)cc1C` (centres unmarked) [Compound E1.041], the melting point fell in the range of 89 to 91 °C. Moreover, the pest or weed control at 200 ppm in data set [1] is at least 80%. In data set [3], the pest or weed control at 200 ppm was at least 80%.
On to `COc1cc(/N=C/N(C)C(C)C)c(C)cc1C(O)(c1cccnc1F)C(F)(F)F` (centres unmarked) [Compound E1.158], for which the melting point was 120 to 122 °C.
The compound `COc1cc(/N=C/N2CCCC2)c(C)cc1C(O)(C(C)C)C(F)(F)F` (centres unmarked) [Compound E1.135] gave a melting point of 102 to 104 °C.
The compound `CCN(C)/C=N/c1cc(OC)c(C(O)(c2ccc(C(F)(F)F)cc2)C(F)(F)F)cc1C` (centres unmarked) [Compound E1.019] showed a melting point of 124 to 126 °C. Also, the pest or weed control at 200 ppm in data set [1] was at least 80%. For the same compound, the pest or weed control at 200 ppm in data set [2] is at least 80%. Further, the pest or weed control at 200 ppm in data set [3] is at least 80%.
The compound `CCN(C)/C=N/c1cc(OC(C)C)c(C(O)(c2ccccc2)C(F)(F)F)cc1C` (centres unmarked) [Compound E1.115] came in with a melting point of 119 to 120 °C.
On the same count and under the same terms, for `COc1cc(/N=C/N(C)C(C)C)c(C)cc1C(O)(C=C(C)C)C(F)(F)F` (centres unmarked) [Compound E1.141] the value was 77 to 79 °C.
Turning to `CCOC(=O)c1ccc(C(O)(c2cc(C)c(/N=C/N(C)CC)cc2OC)C(F)(F)F)cc1` (centres unmarked) [Compound E1.039], the melting point lay in the range of 118 to 120 °C. In addition, in data set [1], the pest or weed control at 200 ppm is at least 80%. In data set [3], the pest or weed control at 200 ppm was at least 80%.
`CCN(C)/C=N/c1cc(OC)c(C(O)(c2cccc(OC(F)F)c2)C(F)(F)F)cc1C` (centres unmarked) [Compound E1.044] returned a melting point of 119 to 121 °C. The pest or weed control at 200 ppm in data set [4] was at least 80%. In data set [1], the pest or weed control at 200 ppm is at least 80%. Besides, the pest or weed control at 200 ppm in data set [3] was at least 80%.
Regarding `COc1cc(/N=C/N(C)C(C)C)c(C)cc1C(O)(c1cc(F)ccc1C)C(F)(F)F` (centres unmarked) [Compound E1.146], the melting point lay within 116 to 118 °C.
`COc1cc(/N=C/N(C)C(C)C)c(C)cc1C(O)(c1cccc(F)c1F)C(F)(F)F` (centres unmarked) [Compound E1.144] registered a melting point of 97 to 99 °C.

A word on the melting point: it is the temperature of the solid-liquid transition.
